IC50 data for 98 compounds are collected here from PubChem BioAssay AID1117361 (Southern Research Institute, 2015).

The target of the experiment is Protein Tat (Human immunodeficiency virus type 1 group M subtype B (isolate HXB2)) (UniProt P04608). The experiment can be described thus: HIV-1 Tat–TAR interaction blockers – biochemical, fluorescence polarization, FAM-labeled TAR RNA, counter-screen for Vif-APOBEC3G degradation inhibitor project, dose response (AID 1117361). As to conditions: Tat-TAR RNA binding. (In general: In fluorescence polarisation assays a small probe gives low polarisation when free and higher when bound to something large.)
Sequence of Protein Tat (Human immunodeficiency virus type 1 group M subtype B (isolate HXB2)) (P04608 whole entry, looked up): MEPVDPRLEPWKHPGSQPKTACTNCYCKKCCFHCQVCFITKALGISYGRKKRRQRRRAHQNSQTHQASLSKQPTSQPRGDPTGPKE
By IC50 is commonly meant the concentration needed to halve the response being measured. `COCCCNC(=O)/C(C#N)=C/c1ccc(OCC(=O)O)c(OC)c1`: the IC50 is 34.4 µM.
Turning to `Oc1cc2c(cc1O)[C@H]1c3ccc(O)c(O)c3OC[C@@]1(O)C2`, the IC50 was 15.7 µM.
As to `O=C(O)c1ccc2c(c1)C1C(Cl)C(Sc3ccccc3[N+](=O)[O-])CC1C(c1cccc([N+](=O)[O-])c1)N2` (stereo not drawn), the IC50 is 6.3 µM.
With `O=c1oc2c(O)c(O)cc3c(=O)oc4c(O)c(O)cc1c4c23`, the IC50 is 1.67 µM.
Consider `CCOC(=O)CSc1nncc2ccc(OC)c(OC)c12`, for which the IC50 is 56.6 µM.
As for `CN(CC(=O)Nc1cccc(F)c1)C(=O)c1cccc(-n2cccc2)c1`, the IC50 is 40.9 µM.
As for `COc1ccc(OC)c(S(=O)(=O)Nc2ccc(O)c3ccccc23)c1`, the figure is 83 µM; as for `O=C1CCC/C1=C/Nc1ccc2c(c1)OCO2`, 19.7 µM.
As for `Cc1ccc(N(CC(=O)NCCSCc2ccco2)S(=O)(=O)c2ccc(F)cc2)cc1`, the figure is 63.7 µM.
For the compound `O=C(C1CCCN1S(=O)(=O)c1cccc2cccnc12)N1CCN(c2ccccc2)CC1` (stereo not drawn), the half-inhibitory concentration (IC50) was 46.8 µM.
In the case of `O=C1NC(=O)N(Cc2ccc(F)cc2)C(=O)/C1=C\C=C\c1ccco1`, the IC50 was 42.3 µM.
As for `O=[N+]([O-])c1cc(-c2ccc(/C=N/c3nc4ccccn4c3-c3ccco3)o2)ccc1Cl`, the figure is 28.7 µM; as for `CC1(C)CCCN(C(=O)c2coc(=O)c(Br)c2)C1`, 7.77 µM; as for `O=C(O)COc1ccc2c(c1)O/C(=C\c1ccco1)C2=O`, 53.1 µM.
With `O=C(Nc1cc(Cl)cc(Cl)c1)c1coc(=O)c(Br)c1`, the concentration for half-maximal inhibition (IC50) was 23.5 µM.
With `CC(C)c1ccc(/C=C/C(=O)N2CCc3ccccc3C2)cc1` the figure was 33.7 µM; with `O=C(O)Cc1cccc(=O)c(O)c1C(=O)O`, 54.7 µM; with `COC(=O)CCC(=O)OC1(C)C(=O)C2=CN(CCCOC(C)C)C(c3ccc(OC)cc3)=CC2=C(Br)C1=O` (stereo not drawn), 19.1 µM.
As for `O=C1NC(=S)S/C1=C\C=C\c1ccc([N+](=O)[O-])o1`, the figure is 2.76 µM.
With `C[c-]1[c-](C)[c-](C)[c-](C)[c-]1C.[Fe].c1cc2nccc(N3CCCC3)[c-]2c1` (stereo not drawn) the figure was 2.81 µM; with `CCN(CC)c1ccc(NC2CC(=O)N(CCc3ccc(OC)cc3)C2=O)cc1` (stereo not drawn), 27.3 µM; with `CNc1c(C(=O)O)ccc2c1C(=O)c1ccccc1C2=O`, 21.9 µM.
For the compound `O=[N+]([O-])c1ccccc1S(=O)(=O)NC1CCCC1`, the IC50 was 45 µM.
With `Oc1ccc(N=Cc2ccc(-c3cccs3)s2)cc1` the figure was 8.64 µM; with `COc1ccccc1C1C=C(c2ccc(C)cc2)Nc2nnnn21` (stereo not drawn), 84.4 µM; with `Nc1ccc(Nc2ccccc2)c(S(=O)(=O)O)c1`, 31.4 µM.
As for `Nc1c(C(=O)NC2CC2)sc2nc3c(c(-c4ccco4)c12)CC/C3=C/c1ccco1`, the figure is 0.937 µM; as for `O/C=c1\ccc2cccc3nc(C(F)(F)F)nc1c23`, 2.92 µM; as for `CN(C)c1ccc(Cc2cc3c(O)ccc(O)c3cc(Cc3ccc(N(C)C)cc3)c2=O)cc1`, 85.4 µM.
As for `Cc1ccc(C)n1/N=C1/NC(=O)CS1`, the figure is 0.882 µM; as for `CC(=O)Nc1cccc(Oc2ncnc3scc(-c4ccccc4)c23)c1`, 31 µM; as for `CCOc1ccc(-n2c(Cc3cc(=O)[nH]c(=O)[nH]3)nnc2SC(C)C(=O)OC)cc1` (stereo not drawn), 92.9 µM.
With `Cc1cccc(NC(=O)CSc2nnc(-c3ccco3)c(-c3ccco3)n2)c1C`, the IC50 was 15 µM.
With `CC(=O)Nc1ccc(C=C(C#N)c2ccc(C)cc2)cc1` the figure was 24.7 µM; with `COC(=O)\C(C(C)=O)=C(/C=C/C=C/C=C/N(C)C)N(C)C`, 56.3 µM.
As for `CCCCC1=CC2=CC(=O)C(C)(OC(=O)C3CCCC3)C(=O)C2=CO1` (stereo not drawn), the IC50 was 53.6 µM.
`c1ccc2c(c1)CCCN2Cc1nnc2n1CCCCC2`: the IC50 is 4.29 µM.
For the compound `CCC(C)C(NC(=O)[C@@H](NC(=O)c1ccccc1F)C(C)C)C(=O)OC` (stereo partly drawn), the IC50 was 30.7 µM.
Consider `CC(C)(CS(=O)(=O)[O-])NC(=O)CC[N+](C)(C)CCO`, for which the IC50 was 17.5 µM.
On to `CS(=O)(=O)c1ccc2c(c1)SC1=NC(=O)/C(=C/c3ccco3)C(=N)N12`, for which the IC50 was 10.4 µM.
As for `Cc1cc(C(=O)COC(=O)c2cc(O)c3ccccc3c2O)c(C)n1CC1CCCO1` (stereo not drawn), the concentration for half-maximal inhibition (IC50) is 9.14 µM.
As for `O=C(CCCCCN1C(=O)CCC1=O)Nc1ccc(Cl)c(C(F)(F)F)c1`, the figure is 16.4 µM; as for `Cc1cc(C(=O)CSc2nc3ccccc3c(=O)[nH]2)c(C)n1C`, 49.2 µM.
With `Nc1ncnc2oc(-c3ccco3)c(-c3ccco3)c12` the figure was 3.36 µM; with `CC1CCCCC1NC(=O)COC(=O)c1c2c(nc3ccccc13)/C(=C/c1ccco1)CC2` (stereo not drawn), 7.58 µM.
With `O=C1CC(=O)N(Cc2ccco2)C(=O)N1` the figure was 14.6 µM; with `COC(=O)CCC(=O)OC1(C)C(=O)C=C2C=C3CCCN3C=C2C1=O` (stereo not drawn), 11.1 µM.
For the compound `CN1c2ccsc2C(O)=C(C(=S)Nc2ccc(F)c(Cl)c2)S1(=O)=O`, the IC50 was 5.38 µM.
On to `COc1ccc2c3c(cccc13)N(C)N=C2C`, for which the concentration for half-maximal inhibition (IC50) was 11.1 µM.
`O=c1nc2s/c(=C\c3ccco3)c(=O)n2nc1Cc1ccccc1`: the half-maximal inhibitory concentration (IC50) is 5.21 µM.
With `CC(N=Cc1cccc(O)c1O)c1ccccc1` (stereo not drawn) the figure was 6.96 µM.
With `Cc1cccc(N/N=C/c2ccc(O)c(O)c2O)c1` the figure was 36 µM; with `Cc1ccc(S(=O)(=O)Cn2nnnc2C(CC(C)C)N2CCN(C)CC2)cc1` (stereo not drawn), 22.6 µM.
With `Cc1cc(C(=O)O)ccc1-n1c(C)ccc1C`, the half-inhibitory concentration (IC50) is 5.78 µM.
Regarding `CCC(c1nnnn1C(C)(C)CC)N(CCCO)Cc1cc2cc(C)cc(C)c2[nH]c1=O` (stereo not drawn), the IC50 was 1.88 µM.
As for `Cn1c(O)c(/C=N/NC(=O)c2ccncc2)c(=O)[nH]c1=S`, the figure is 51.8 µM.
As for `O=C(O)C[C@@H]1C(=O)O[C@@H]2C(COC(=O)c3cc(O)c(O)c(O)c3)O[C@@H](OC(=O)c3cc(O)c(O)c(O)c3)[C@@H](OC(=O)c3cc(O)c(O)c4c3[C@H]1[C@H](O)C(=O)O4)[C@H]2OC(=O)c1cc(O)c(O)c(O)c1` (stereo partly drawn), the figure is 0.556 µM; as for `O=C1NC(=S)NC1=Cc1ccco1`, 35.7 µM; as for `CCOC(=O)N1CCN(C(=O)c2ccc3c(SCC(=O)O)c4c(nc3c2)CCC4)CC1`, 7.65 µM.
With `O=C1CCCC/C1=C/Nc1ccc2c(c1)OCO2` the figure was 41.3 µM.
For `O=C(O)c1ccc(Cl)c2c1C1C=CCC1C(c1ccccn1)N2` (stereo not drawn), the 50% inhibitory concentration (IC50) is 2.81 µM.
As for `O=C(COC(=O)c1ccccc1)Nc1ncc([N+](=O)[O-])s1`, the figure is 20.5 µM; as for `O=C(NCc1ccccn1)c1coc(=O)c(Br)c1`, 88.3 µM.
Turning to `O=C(CSc1nc2ccccc2n1CCc1ccccc1)c1ccc(O)c(O)c1`, the IC50 is 8.81 µM.
With `NC(=O)/C(=C/c1ccco1)C(N)=S` the figure was 12 µM.
As for `NS(=O)(=O)c1ccc(N=Nc2c[nH]c(=O)c(O)c2)cc1`, the figure is 9.47 µM; as for `COC(C(=O)C(O)C(C)O)C1Cc2cc3cc(OC4CC(OC5CC(O)C(O)C(C)O5)C(O)C(C)O4)c(C)c(O)c3c(O)c2C(=O)C1OC1CC(OC2CC(OC3CC(O)C(OC)C(C)O3)C(O)C(C)O2)C(O)C(C)O1` (stereo not drawn), 27.9 µM; as for `FC(F)(F)c1cc(-c2ccco2)nc(NCc2ccco2)n1`, 28.5 µM.
As for `COc1cc2c(cc1N)-c1ccc(N)cc1C2`, the figure is 2.51 µM; as for `COc1cccc(CNC(=O)CCNS(=O)(=O)c2cccs2)c1`, 9.05 µM; as for `O=C(OC1CCCCC1)c1ccc2c(c1)C1C=CCC1C(C(=O)O)N2` (stereo not drawn), 2.26 µM.
Take `c1coc(-c2nc(-c3ccco3)c(-c3ccco3)nc2-c2ccco2)c1`: the IC50 was 2.19 µM.
On to `O=c1[nH]nc(CNc2ccc(O)cc2)c2ccccc12`, for which the IC50 is 33.7 µM.
For `Cc1cc(O)c(-c2cc(O)c(C)cc2O)cc1O`, the IC50 is 89.7 µM.
As for `COc1ccc(CCNC(=O)c2ccc3nc(-c4ccco4)c(-c4ccco4)nc3c2)cc1OC`, the figure is 4.32 µM; as for `Cc1cccn2c(=O)c3cc(C(=O)NCc4ccco4)c(=N)n(CCc4ccccc4)c3nc12`, 11.8 µM; as for `COc1cc(/C=C2/C(=O)c3cccc([N+](=O)[O-])c3C2=O)c(Br)cc1O`, 96.5 µM.
Regarding `O=c1c2cc(N3CCOCC3)ccc2[nH]c(=S)n1Cc1ccco1`, the half-inhibitory concentration (IC50) is 38.7 µM.
On to `CCOC(=O)C1CCCN(C(=O)c2cc(-c3ccco3)nc3ccccc23)C1` (stereo not drawn), for which the IC50 is 27.8 µM.
As for `COc1ccc2nc(-c3ccco3)c(-c3ccco3)nc2c1`, the 50% inhibitory concentration (IC50) was 3.13 µM.
In the case of `COc1ccc(NC(=O)CC2Nc3cccc4cccc(c34)NC2=O)cc1` (stereo not drawn), the IC50 is 7.03 µM.
Consider `O=C(/C=C/c1ccco1)NC(=S)Nc1ccccc1N1CCOCC1`, for which the IC50 was 25.8 µM.
With `COc1cccc(C2C(C#N)=C(N)OC3=C2C(=O)CC(c2ccco2)C3)c1OCc1ccc(F)cc1` (stereo not drawn), the IC50 is 12.2 µM.
As for `Cc1cc2ccccc2n1CCNC(=O)C1CCCCC1`, the figure is 23.5 µM; as for `CC(=O)c1ccc(S(=O)(=O)Nc2cccc(-n3cnnn3)c2)cc1`, 74.2 µM; as for `Clc1ccc(OCc2nn3c(-c4ccco4)nnc3s2)c(Cl)c1`, 51.5 µM.
With `S=c1[nH]nc(-c2cccnc2)n1/N=C/C=C/c1ccco1` the figure was 5.3 µM; with `O=C1C=CC(=O)c2c(O)c(CO)c(CO)c(O)c21`, 3.48 µM; with `O=[N+]([O-])c1cc(CN2CCOCC2)c2cccnc2c1O`, 15.8 µM.
As for `CCCCCC#CCC#CCC#CCC#CCCCC(=O)O`, the figure is 2.38 µM.
Consider `O=C(Nc1ccc(Cl)cc1)Nc1ccc(N2CCC(C(F)(F)F)CC2)nc1`, for which the IC50 is 32.5 µM.
As for `CCOC(=O)C1=C(C)N=C2SC(C(=O)OC)=CC(=O)N2C1c1cc(OC)c(OC)c(OC)c1` (stereo not drawn), the figure is 31.4 µM; as for `Cc1ccc(-c2ccc(CCC(=O)O)n2NC(N)=S)cc1`, 17.8 µM.
On to `CCN1CCc2c(C#N)c(NCc3ccccc3)nc(N(CC)CC)c2C1`, for which the IC50 was 59.4 µM.
As for `Cc1onc(-c2ccccc2Cl)c1C(=O)NCc1ccco1`, the figure is 6.65 µM; as for `CSc1nnc(-c2ccco2)c(-c2ccco2)n1`, 6.07 µM.
For `O=C(Nc1ccccc1N1CCCC1)c1ccc(Br)o1`, the IC50 was 59.6 µM.
As for `COC(=O)Cn1c(CCC(=O)O)ccc1-c1ccccc1`, the IC50 was 42.3 µM.
